Data reported in patent US12391686B2, “Compounds and uses thereof” (Foghorn Therapeutics Inc., priority 2019, dated 2025).
Read-outs that look alike come from different tables or passages of the source.

Molecular target: T1, Nanoluciferase-BRD9 fusion protein (3×FLAG-NLuc-BRD9) in SYO-1 cells (Homo sapiens, UniProt Q9H8M2)
T1 construct: expressed in transfected cells; host or cells: SYO-1
T1 sequence (Q9H8M2 1-597): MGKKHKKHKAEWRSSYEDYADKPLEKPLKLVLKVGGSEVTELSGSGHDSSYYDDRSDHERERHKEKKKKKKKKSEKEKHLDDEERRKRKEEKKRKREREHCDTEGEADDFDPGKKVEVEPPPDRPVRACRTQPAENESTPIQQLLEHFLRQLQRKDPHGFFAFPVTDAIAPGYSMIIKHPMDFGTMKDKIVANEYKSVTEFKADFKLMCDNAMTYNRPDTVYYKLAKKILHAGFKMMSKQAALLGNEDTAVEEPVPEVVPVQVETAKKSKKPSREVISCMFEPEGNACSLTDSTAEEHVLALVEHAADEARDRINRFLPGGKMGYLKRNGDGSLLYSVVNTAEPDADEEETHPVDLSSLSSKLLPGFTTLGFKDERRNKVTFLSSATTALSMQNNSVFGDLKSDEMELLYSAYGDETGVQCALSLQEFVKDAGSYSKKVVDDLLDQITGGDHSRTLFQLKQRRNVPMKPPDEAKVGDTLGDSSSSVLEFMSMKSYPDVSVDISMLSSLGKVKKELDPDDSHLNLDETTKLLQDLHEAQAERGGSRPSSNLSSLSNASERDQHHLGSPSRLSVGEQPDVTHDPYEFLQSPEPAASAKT
Experiment: SYO1 BRD9 NanoLuc Degradation Assay
Assay type: cell-based
Details: SYO-1 cells expressing 3×FLAG-NLuc-BRD9, 6 hours incubation, 1 μM top dose, read-out: SYO1 BRD9-NanoLuc degradation IC50
Summary of the method: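 Stable 3×FLAG-NLuc-BRD9 SYO-1 line, 8000 cells/well, dosed day 1 with 10-point 3-fold dilutions (1 μM final top, duplicates) for 6 h. NanoLuc bioluminescence read with Nano-Glo; % inhibition relative to DMSO (high) and 1 μM reference BRD9 degrader (low) controls.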

## [2H]C([2H])([2H])n1cc(-c2cc(OC)c(CN3CCN(CCC4CCN(c5ccc6c(c5)C(=O)N(C5CCC(=O)NC5=O)C6)CC4)CC3)c(OC)c2)c2cc(N(C)C)ncc2c1=O (stereo not shown) [Compound D240]
Table 6C
  DC50: < 10 nM

## COc1cc(-c2cn(C)c(=O)c3cnc(N(C)C)cc23)cc(OC)c1CN1CC(CN2CCC3(CC2)CN(c2ccc4c(c2)C(=O)N(C2CCC(=O)NC2=O)C4)C3)C1 (stereo not shown) [Compound D152]
Table 6B
  DC50: < 10 nM

## COc1cc(-c2cn(C)c(=O)c3cnc(N4CC(F)(F)C4)cc23)cc(OC)c1CN1CCC(CCN2CCC3(CC2)CN(c2ccc4c(c2)C(=O)N(C2CCC(=O)NC2=O)C4)C3)CC1 (stereo not shown) [Compound D241]
Table 6C
  DC50: < 10 nM

## COc1cc(-c2cn(C)c(=O)c3cnc(N(C)C)cc23)cc(OC)c1CN1CCN(C2CCN(c3ccc4c(c3)C(=O)N(C3CCC(=O)NC3=O)C4=O)CC2)CC1 (stereo not shown) [Compound D53]
Table 6B
  DC50: < 10 nM

## CNc1cc2c(=O)n(C)cc(-c3cc(OC)c(CN(C)CC45CC(C(=O)NCCCCCNc6cccc7c6C(=O)N(C6CCC(=O)NC6=O)C7=O)(C4)C5)c(OC)c3)c2cn1 (stereo not shown) [Compound D172]
Table 6B
  DC50: 10 to 100 nM

## COc1cc(-c2cn(C)c(=O)c3cnc(N(C)C)cc23)cc(OC)c1CN1CCN(c2ccc3c(c2)C(=O)N(C2CCC(=O)NC2=O)C3)CC1 (stereo not shown) [Compound D113]
Table 6B
  DC50: < 10 nM

## COc1cc(-c2cn(C)c(=O)c3cnc(N(C)C)cc23)cc(OC)c1CN1CC(CCCN2CCN(c3ccc4c(c3)C(=O)N(C3CCC(=O)NC3=O)C4=O)CC2)C1 (stereo not shown) [Compound D44]
Table 6B
  DC50: 10 to 100 nM

## COc1cc2c(-c3cc(OC)c(CN4CCN(c5ccc6c(c5)C(=O)N(C5CCC(=O)NC5=O)C6)CC4(C)C)c(OC)c3)cn(C)c(=O)c2cn1 (stereo not shown) [Compound D260]
Table 6C
  DC50: < 10 nM

## COc1cc(-c2cn(C)c(=O)c3cnc(C4CC4)cc23)cc(OC)c1CN1CCC(C(N2CCC3(CC2)CC(Oc2ccc4c(c2)C(=O)N(C2CCC(=O)NC2=O)C4)C3)C(F)(F)F)CC1 (stereo not shown) [Compound D243]
Table 6C
  DC50: < 10 nM

## COc1cc(-c2cn(C)c(=O)c3cnc(N4CCC4)cc23)cc(OC)c1CN1CC(CN2CCC3(CC2)CN(c2ccc4c(c2)C(=O)N(C2CCC(=O)NC2=O)C4=O)C3)C1 (stereo not shown) [Compound D116]
Table 6B
  DC50: < 10 nM

## COc1cc(-c2cn(C)c(=O)c3cnc(C(C)(C)C)cc23)cc(OC)c1CN1CCC(CN2CCC3(CC2)CC(Oc2ccc4c(c2)C(=O)N(C2CCC(=O)NC2=O)C4)C3)CC1 (stereo not shown) [Compound D214]
Table 6C
  DC50: < 10 nM

## COc1cc(-c2cn(C)c(=O)c3cnc(N(C)C)cc23)cc(Cl)c1C(=O)N1CCN(CCC2CCN(c3ccc4c(c3)CN(C3CCC(=O)NC3=O)C4=O)CC2)CC1 (stereo not shown) [Compound D189]
Table 6C
  DC50: < 10 nM

## COc1cc(-c2cn(C)c(=O)c3cnc(N4CCC4)cc23)cc(OC)c1CN1CCC(CN2CCC3(CC2)CN(c2ccc4c(c2)C(=O)N(C2CCC(=O)NC2=O)C4=O)C3)CC1 (stereo not shown) [Compound D136]
Table 6B
  DC50: < 10 nM

## COc1cc(-c2cn(C)c(=O)c3cnc(N(C)C)cc23)cc(OC)c1CN1CCC(C(=O)N2CCC3(CC2)CC(Oc2ccc4c(c2)C(=O)N(C2CCC(=O)NC2=O)C4=O)C3)C(OC)C1 (stereo not shown) [Compound D111]
Table 6B
  DC50: < 10 nM

## COc1cc(-c2cn(C)c(=O)c3cnc(N4CC(F)(F)C4)cc23)cc(OC)c1CN1CCC(CN2CCC3(CC2)CN(c2ccc4c(c2)C(=O)N(C2CCC(=O)N(C)C2=O)C4)C3)CC1 (stereo not shown) [Compound D261]
Table 6C
  DC50: ≥ 1000 nM

## COc1cc(-c2cn(C)c(=O)c3cnc(N4CCC4)cc23)cc(OC)c1CN1CCN(c2ccc3c(c2)C(=O)N(C2CCC(=O)NC2=O)C3)CC1(C)C (stereo not shown) [Compound D290]
Table 6C
  DC50: < 10 nM

## COc1cc2c(-c3cc(OC)c(CN4CCN(c5ccc6c(c5)C(=O)N(C5CCC(=O)NC5=O)C6)CC4)c(OC)c3)cn(C)c(=O)c2cn1 (stereo not shown) [Compound D217]
Table 6C
  DC50: < 10 nM

## COc1cc(-c2cn(C)c(=O)c3cnc(N(C)C)cc23)cc(OC)c1CN1CC(CN2CCC3(C2)CN(c2ccc4c(c2)C(=O)N(C2CCC(=O)NC2=O)C4=O)C3)C1 (stereo not shown) [Compound D51]
Table 6B
  DC50: < 10 nM

## [2H]C([2H])([2H])n1cc(-c2cc(OC)c(CN3CCN(CCC4CCN(c5ccc6c(c5)CN(C5CCC(=O)NC5=O)C6=O)CC4)CC3)c(OC)c2)c2cc(OC)ncc2c1=O (stereo not shown) [Compound D230]
Table 6C
  DC50: < 10 nM
